Laboratory results published in US20250026769A1, “PAPD5 INHIBITORS AND METHODS OF USE THEREOF” (The Children's Medical Center Corporation, priority 2021, published 2025).
Read-outs that look alike come from different tables or passages of the source.

How the values were obtained:
[1] = target: T1, rPAPD5 (Homo sapiens, UniProt Q8NDF8); test: differential scanning fluorimetry (DSF) binding and stabilization of rPAPD5; conditions: for ΔTm at 100 µM: 100 μM test compound, read-out: ΔTm at 100 μM; for ΔTm at 1 µM: 1 μM test compound (Table 2a), read-out: ΔTm at 1 μM
T1 construct: made in house
T1 sequence (Q8NDF8 68-698 isoform Q8NDF8-5 limits assumed): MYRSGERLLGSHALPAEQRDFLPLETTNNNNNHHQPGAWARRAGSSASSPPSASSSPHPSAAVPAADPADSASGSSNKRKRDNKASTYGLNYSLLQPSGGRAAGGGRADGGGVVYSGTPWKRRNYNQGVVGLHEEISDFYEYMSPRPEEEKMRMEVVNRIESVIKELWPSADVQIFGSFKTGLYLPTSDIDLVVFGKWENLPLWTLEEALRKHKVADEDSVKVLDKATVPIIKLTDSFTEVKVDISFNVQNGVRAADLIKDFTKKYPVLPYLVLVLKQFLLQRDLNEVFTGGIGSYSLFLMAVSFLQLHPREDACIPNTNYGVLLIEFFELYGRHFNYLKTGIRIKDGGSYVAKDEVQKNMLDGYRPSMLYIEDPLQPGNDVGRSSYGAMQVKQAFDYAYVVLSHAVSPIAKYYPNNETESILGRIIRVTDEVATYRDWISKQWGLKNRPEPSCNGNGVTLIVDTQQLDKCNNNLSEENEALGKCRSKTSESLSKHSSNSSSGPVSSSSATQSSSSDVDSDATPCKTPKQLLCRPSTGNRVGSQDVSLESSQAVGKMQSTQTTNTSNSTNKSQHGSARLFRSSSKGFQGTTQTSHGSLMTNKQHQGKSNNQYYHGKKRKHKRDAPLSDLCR
Method in brief: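 Differential scanning fluorimetry was used to measure how test compounds bind and thermally stabilize rPAPD5. The reaction contained SYPRO orange dye diluted 1:5000 in […] of buffer with […], 25 mM Tris-HCl, 5 mM MgCl2 and 50 mM KCl. ΔTm was calculated relative to a DMSO control.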

[2] = tested on: hepatitis B surface antigen (HBSAg) from HepG2.2.15 cells, a hepatitis B virus-expressing cell line; test: HBsAg ELISA in supernatant of HepG2.2.15 cells; format: cell-based; conditions: HepG2.2.15, 96 h
Protocol: HepG2.2.15 cells, a hepatitis B virus-expressing cell line (Sells, M. A. et al., PNAS, 1987), were plated at 50,000 cells/well in DMEM/F12 media (Gibco) with 10% fetal bovine serum (Omega Scientific) in a 24-well or 96-well plate (Corning), in 2-3 replicates for each test compound/concentration plus controls, and incubated in a humidified 5% CO2 chamber at 37° C. The next day, media was aspirated, cells were washed once with phosphate buffered saline, pH7.4 (Gibco), and 1 mL DMEM/12 media was replaced. Test compounds were added in 3-fold dilutions from up to 100 μM down to 333 pM, with vehicle (dimethylsulfoxide (Sigma)) as a control. After four days of culture in a humidified 5% CO2 chamber at 37° C., plates were spun down in a centrifuge at 300 g for 10 minutes at room temperature. Supernatant from each well was collected and either frozen at −20° C. or used directly for quantitation of hepatitis B surface antigen (HBSAg) in an enzyme-linked immunosorbent assay (ELISA). The supernatant was tested using the HBSAg ELISA kit (Abnova Cat. No KA0286) per the manufacturer's instructions. Results of replicates were averaged and nonlinear curve fitting was used to determine the half maximal inhibitory concentration (IC50) for each test compound.

[3] = tested on: TERC 3′ end processing in DC patient iPSCs; test: TERC 3′ end processing by RACE in DC patient / PARN-mutant iPSCs; format: cell-based, human; conditions: Homo sapiens, iPSC; patient iPSCs; concentration class at which activity is seen; read-out: iPSC-based RACE activity
Protocol: (§1) Compound 266A had activity ˜2-logs higher in the in vitro RNA oligoadenylation assay compared to the parental compound cmpd. 1, approximating the activity of RG7834 (FIG. 7). […] 1. Compounds 295A and 296A had activity 2-3 logs higher in DC patient iPSCs, showing TERC maturation at 1 nM, similar to RG7834 (FIG. 6). […] Referring to Table 1D, “+” refers to activity at 1 μM, “++” refers to activity above 1 nM and below 1 μM, and “+++” refers to activity at <1 nM, “ND” refers to not determined.

[4] = tested on: telomere length in DC patient iPSCs; test: telomere length / telomere elongation in DC patient iPSCs; format: cell-based, human; conditions: Homo sapiens, iPSC; patient iPSCs; concentration class at which activity is seen; read-out: iPSC-based Telomere length
Protocol: as §1

[5] = 10 μM test compound (Table 2a), read-out: ΔTm at 10 μM
[6] = 10 μM test compound, shift vs DMSO control, read-out: ΔTm (Table 2, starred: the compound was tested at 10 μM)

| SMILES | ΔTm at 100 µM ([1]; shift vs DMSO control) | IC50 [2] | ΔTm at 1 µM [1] | ΔTm at 10 µM [1, 5] | ΔTm at 10 µM [1, 6] | minimal effective concentration [3] | minimal effective concentration [4] |
| --- | --- | --- | --- | --- | --- | --- | --- |
| O=C(O)c1ccccc1Nc1c(-c2ncco2)cnc2ccc(Cl)cc12 [Compound 129A, 2-[(6-chloro-3-oxazol-2-yl-4-quinolyl)amino]benzoic acid] | > 5 °C | 4600 nM | – | – | – | – | – |
| O=C(O)c1ccccc1Nc1c(-c2ncco2)cnc2ccc(Br)cc12 [Compound 130A] | > 5 °C | 8890 nM | – | – | – | – | – |
| O=C(O)c1ccccc1Nc1c(NC2CCC(F)(F)CC2)cnc2ccc(Cl)cc12 [Compound 185A, 2-[[6-chloro-3-[(4,4-difluorocyclohexyl)amino]-4-quinolyl]amino]benzoic acid] | > 5 °C | 2190 nM | – | – | – | – | – |
| O=C(O)c1ccccc1Nc1c(C2CCOCC2)cnc2ccc(Cl)cc12 [Compound 204A, 2-[(6-chloro-3-tetrahydropyran-4-yl-4-quinolyl)amino]benzoic acid] | > 5 °C | 3390 nM | – | – | – | – | – |
| O=C(O)c1ccccc1Nc1c(C2=CCOCC2)cnc2ccc(Cl)cc12 [Compound 204A-INT, 2-[[6-chloro-3-(3,6-dihydro-2H-pyran-4-yl)-4-quinolyl]amino]benzoic acid] | > 5 °C | 2690 nM | – | – | – | – | – |
| O=C(O)c1ccccc1Nc1c(C2=CCC(F)(F)CC2)cnc2ccc(Cl)cc12 [Compound 205A-INT, 2-[[6-chloro-3-(4,4-difluorocyclohexen-1-yl)-4-quinolyl]amino]benzoic acid] | > 5 °C | 1300 nM | – | – | – | – | – |
| O=C(O)c1ccccc1Nc1c(S(=O)(=O)Nc2nn[nH]n2)cnc2ccc(Cl)cc12 [Compound 226A, 2-[[6-chloro-3-(2H-tetrazol-5-ylsulfamoyl)-4-quinolyl]amino]benzoic acid] | > 5 °C | 9460 nM | – | – | – | – | – |
| O=C(O)c1ccccc1Nc1c(S(=O)(=O)N2CCOCC2)cnc2ccc(F)cc12 [Compound 233A, 2-[(6-fluoro-3-morpholinosulfonyl-4-quinolyl)amino]benzoic acid] | > 5 °C | 29100 nM | – | – | – | – | – |
| O=C(O)c1cc(F)ccc1Nc1c(S(=O)(=O)N2CCOCC2)cnc2ccc(Cl)cc12 [Compound 267A, 2-[(6-chloro-3-morpholinosulfonyl-4-quinolyl)amino]-5-fluoro-benzoic acid] | > 5 °C | 4840 nM | – | – | – | – | – |
| Cc1ccc(Nc2c(S(=O)(=O)N3CCOCC3)cnc3ccc(Cl)cc23)c(C(=O)O)c1 [Compound 269A, 2-[(6-chloro-3-morpholinosulfonyl-4-quinolyl)amino]-5-methyl-benzoic acid] | > 5 °C | 1680 nM | – | – | – | – | – |
| COc1ccc(Nc2c(S(=O)(=O)N3CCOCC3)cnc3ccc(Cl)cc23)c(C(=O)O)c1 [Compound 270A, 2-[(6-chloro-3-morpholinosulfonyl-4-quinolyl)amino]-5-methoxy-benzoic acid] | > 5 °C | 4980 nM | – | – | – | – | – |
| O=C(O)c1ccccc1Nc1c(C2CCSCC2)cnc2ccc(Cl)cc12 [Compound 298A, 2-[(6-chloro-3-tetrahydrothiopyran-4-yl-4-quinolyl)amino]benzoic acid] | > 5 °C | 1750 nM | – | – | – | – | – |
| Cc1ccc(Nc2c(-c3ncco3)cnc3ccc(Cl)cc23)c(C(=O)O)c1 [Compound 301A, 2-[(6-chloro-3-oxazol-2-yl-4-quinolyl)amino]-5-methyl-benzoic acid] | > 5 °C | 942 nM | – | – | – | – | – |
| O=C(O)c1cc(F)ccc1Nc1c(C2CCOCC2)cnc2ccc(Cl)cc12 [Compound 303A, 2-[(6-chloro-3-tetrahydropyran-4-yl-4-quinolyl)amino]-5-fluoro-benzoic acid] | > 5 °C | 229 nM | – | – | – | – | – |
| Cc1ccc(Nc2c(C3CCOCC3)cnc3ccc(Cl)cc23)c(C(=O)O)c1 [Compound 305A, 2-[(6-chloro-3-tetrahydropyran-4-yl-4-quinolyl)amino]-5-methyl-benzoic acid] | > 5 °C | 66 nM | – | – | – | – | – |
| Cc1ccc(Nc2c(C3=CCOCC3)cnc3ccc(Cl)cc23)c(C(=O)O)c1 [Compound 306A, 2-[[6-chloro-3-(3,6-dihydro-2H-pyran-4-yl)-4-quinolyl]amino]-5-methyl-benzoic acid] | > 5 °C | 1050 nM | – | – | – | – | – |
| COc1ccc(Nc2c(C3CCOCC3)cnc3ccc(Cl)cc23)c(C(=O)O)c1 [Compound 307A, 2-[(6-chloro-3-tetrahydropyran-4-yl-4-quinolyl)amino]-5-methoxy-benzoic acid] | > 5 °C | 1320 nM | – | – | – | – | – |
| O=C(O)c1cc(Cl)ccc1Nc1c(C2CCSCC2)cnc2ccc(Cl)cc12 [Compound 341A, 5-chloro-2-[(6-chloro-3-tetrahydrothiopyran-4-yl-4-quinolyl)amino]benzoic acid] | – | 84 nM | > 5 °C | > 5 °C | > 5 °C | 0.001 to 1 µM | – |
| O=C(O)c1cc(Cl)ccc1Nc1c(N2CCSCC2)cnc2ccc(Cl)cc12 [Compound 346A, 5-chloro-2-[(6-chloro-3-thiomorpholino-4-quinolyl)amino]benzoic acid] | > 5 °C | 88 nM | 1 to 5 °C | > 5 °C | – | 0.001 to 1 µM | – |
| O=C(O)c1cc(Cl)ccc1Nc1c(-c2cn[nH]c2)cnc2ccc(Cl)cc12 [Compound 354A, 5-chloro-2-[[6-chloro-3-(1H-pyrazol-4-yl)-4-quinolyl]amino]benzoic acid] | – | 3340 nM | 1 to 5 °C | > 5 °C | > 5 °C | 1 µM | – |
| CN1CC=C(c2cnc3ccc(Cl)cc3c2Nc2ccc(Cl)cc2C(=O)O)CC1 [Compound 367A, 5-chloro-2-[[6-chloro-3-(1-methyl-3,6-dihydro-2H-pyridin-4-yl)-4-quinolyl]amino]benzoic acid] | > 5 °C | 902 nM | > 5 °C | > 5 °C | – | 1 µM | – |
| O=C(O)c1cc(Cl)ccc1Nc1c(N2CCC(=NO)CC2)cnc2ccc(Cl)cc12 [Compound 376A, 5-chloro-2-[[6-chloro-3-(4-hydroxyimino-1-piperidyl)-4-quinolyl]amino]benzoic acid] | > 5 °C | 101 nM | > 5 °C | > 5 °C | – | 1 µM | – |
| O=C1CCN(c2cnc3ccc(Cl)cc3c2Nc2ccc(Cl)cc2C(=O)O)CC1 [Compound 395A, 5-chloro-2-[[6-chloro-3-(4-oxo-1-piperidyl)-4-quinolyl]amino]benzoic acid] | > 5 °C | – | > 5 °C | > 5 °C | – | 1 µM | < 0.001 µM |
| O=C(O)c1cc(Cl)c(F)cc1Nc1c(S(=O)(=O)N2CCSCC2)cnc2ccc(Cl)cc12 [Compound 425A, 5-chloro-2-[(6-chloro-3-thiomorpholinosulfonyl-4-quinolyl)amino]-4-fluoro-benzoic acid] | > 5 °C | – | > 5 °C | > 5 °C | – | 0.001 to 1 µM | – |
| Cc1cc(Nc2c(S(=O)(=O)N3CCSCC3)cnc3ccc(Cl)cc23)c(C(=O)O)cc1Cl [Compound 426A, 5-chloro-2-[(6-chloro-3-thiomorpholinosulfonyl-4-quinolyl)amino]-4-methyl-benzoic acid] | – | – | 1 to 5 °C | > 5 °C | > 5 °C | 1 µM | – |
| O=C(O)c1cc(Cl)cc(F)c1Nc1c(S(=O)(=O)N2CCSCC2)cnc2ccc(Cl)cc12 [Compound 427A, 5-chloro-2-[(6-chloro-3-thiomorpholinosulfonyl-4-quinolyl)amino]-3-fluoro-benzoic acid] | > 5 °C | – | > 5 °C | > 5 °C | – | 0.001 to 1 µM | – |
| O=C(O)c1cc(Cl)ccc1Nc1c(N2CCC(Cl)(Cl)CC2)cnc2ccc(Cl)cc12 [Compound 430A, 5-chloro-2-[[6-chloro-3-(4,4-dichloro-1-piperidyl)-4-quinolyl]amino]benzoic acid] | – | – | > 5 °C | > 5 °C | > 5 °C | < 0.001 µM | – |
